Assay results: patent US20120035244A1, “PARP1 TARGETED THERAPY” (THE REGENTS OF THE UNIVERSITY OF MICHIGAN, priority 2010, published 2012)
Entries after “also recorded” stand apart in the source; their conditions may differ.

Key:
[1] = system: ERG-target gene expression; test: qPCR of ERG-target genes in staged PC3-ERG tumors; format: in vivo, mice; settings: 4 hours, 40 mg/kg Olaparib or 25 mg/kg NU7026
[2] = system: DU145 model overexpressing T2:ERG; test: γH2A.X foci after radiation (DNA double strand break repair), isogenic DU145 model; format: cell-based; settings: DU145, pre-treated with 10 μM Olaparib, then radiation
Procedure: The effect of ETS overexpression on repair of DNA double strand breaks was assayed. Isogenic PC3 and DU145 models, respectively, overexpressing either T2:ERG or ERG with a deleted ETS domain were pre-treated with or without 10 μM Olaparib and then treated with radiation. Immunofluorescence staining of γH2A.X foci was used to assess total levels of DNA damage and repair rate. The number of cells with >10 γH2A.X foci were quantified at each time point as indicated. Representative photomicrographs were taken 24 hours after treatment using an Olympus confocal microscope with a 100× Oil objective. All experiments were run in triplicate. Error bars are standard error of the mean.

PC3 = test: Basement membrane matrix invasion assay, PC3 cells; format: cell-based, human
PC3-ERG cells = test: Neutral COMET assay, ERG overexpressing PC3 cells versus controls; format: cell-based, human
[3] = system: RWPE cells transduced with ERG adenovirus; test: Basement membrane matrix invasion assay, RWPE cells transduced with ERG adenovirus; format: cell-based, human; settings: P<0.01 for DNA-PKcs siRNA or NU7026>10 μM, P<0.05 for all PARP1 siRNA, NU1025 or Olaparib treatments
Procedure: (§1) For invasion assays, the prostate cell lines RWPE-1 and VCaP were transfected with siRNA or negative controls as indicated. NU7026 (Sigma) and NU1025 (Calbiochem) were dissolved in DMSO and stored at −20° C. in the dark. Forty-eight hours post-transfection/transduction, cells were seeded onto the basement membrane matrix (EC matrix, Chemicon, Temecula, Calif.) in the chamber insert with […] pores of a 24-well culture plate in serum free media. Cells were attracted to the lower chamber by the addition of complete media as a chemoattractant. After 48 hours incubation at 37° C. with 5% CO2, the non-invading cells and EC matrix were gently removed with a cotton swab. Invasive cells, which were located on the lower side of the membrane, were stained with crystal violet, air dried and photographed. To quantify the relative number of invaded cells, colorimetric assays were performed by treating the inserts with 150 μl of 10% acetic acid (v/v) and measuring absorbance of each condition at 560 nm using a spectrophotometer (GE Healthcare).

VCaP = test: CAM xenograft tumor weight, VCaP; format: in vivo, chicken embryo; settings: extended Olaparib treatment, P<0.05
Procedure: (§2) The CAM assay was performed as described previously (Zijlstra, A., et al., Cancer research 62, 7083-7092 (2002)). Briefly, fertilized eggs were incubated in a rotary humidified incubator at 38° C. with for 10 days. After releasing the CAM by applying mild amount of low pressure to the hole over the air sac and cutting a square 1-cm^2 window encompassing a second hole near the allantoic vein, cultured human cells that had been pre-treated with siRNA as indicated were detached by trypsinization and re-suspended in complete medium prior to implantation of 2×10^6 cells adjacent to the mesenchyme in each egg. The windows were subsequently, sealed and the eggs were returned to a stationary incubator. Cells were then treated as indicated with 40 mg/kg body weight Olaparib which was administered on day 13, 15 and 17. Day 18 embryos were sacrificed. Tumors were then excised and weighed. […] After incubation of either the metastasis or intravasation assays, the extra-embryonic tumor and CAM, as well as the embryonic liver were harvested and analyzed for the presence of tumor cells by quantitative human alu-specific PCR. […] Quantification of human cells in the extracted DNA was done as described^14. Fluorogenic TaqMan qPCR probes were applied as above, and DNA copy numbers were quantified.

[4] = system: VCaP and PC3 xenograft tumors; test: Ki67 and CD31 immunohistochemistry on tissue microarray of VCaP and PC3 xenograft tumors; settings: pairwise t-test
[5] = system: MDA-PCa-133 (ERG positive); test: Human prostate cancer tissue xenograft (primagraft) MDA-PCa-133; format: in vivo, mice; settings: MDA-PCa-133, 40 mg/kg Olaparib; P=0.05 (Day 8), P<0.01 (day 16, 24 and 32)
Procedure: (§3) Human prostate cancer specimens MDA-PCa 2b-T (ETV1 positive), MDA-PCa-133 (ERG positive) and MDA PCa 118b (ETS-negative) were obtained (Li, Z. G., et al. The Journal of clinical investigation 118, 2697-2710 (2008)). Each xenografted tumor tissue was aseptically harvested from the host mice. New recipient mice were anesthetized by injecting […] intraperitoneally for chemical restraint before tumor implantation. About 0.5 cm^3 size of the excised tumor tissue was directly implanted into subcutaneous pockets of 6- to 8-week-old male CB17 SCID mice (Charles River Laboratories) in a laminar flow sterile hood. Sub-cutaneous pocket was carefully closed by applying 1 or 2 wound clips. All mice were monitored for 24 hours after implantation procedure for any apparent physiologic disturbances or missing wound clips. Olaparib (40 mg/Kg body weight) treatment was started after 72 hours. […] Body weight was also monitored weekly during the course of the study.

[6] = system: RWPE cells stably overexpressing ETV1; test: Basement membrane matrix invasion assay, RWPE-ETV1 cells; format: cell-based, human; settings: P<0.01 for all PARP1 or DNA-PKcs treatments
Procedure: as §1

VCaP cells = test: Basement membrane matrix invasion assay, VCaP cells; format: cell-based, human; settings: P<0.01 for DNA-PKcs siRNA or NU7026>10 μM; P<0.05 for all PARP1 siRNA, NU1025 or Olaparib treatments
Procedure: as §1

[7] = system: MDA-PCa-118b (ETS negative); test: Human prostate cancer tissue xenograft (primagraft) MDA-PCa-118b; format: in vivo, mice; settings: 40 mg/kg Olaparib
Procedure: as §3

MDA-MB-231 (BRCA1/2 WT) = test: CAM xenograft tumors, MDA-MB-231; format: in vivo, chicken embryo; settings: Olaparib treatment
Procedure: as §2

RWPE-ERG cells = test: Chicken chorioallantoic membrane (CAM) intravasation assay, RWPE-ERG cells; format: in vivo, chicken embryo; settings: lower CAM three days after implantation, 40 mg/kg Olaparib, P<0.1
Procedure: as §2

O=C(c1cc(Cc2n[nH]c(=O)c3ccccc23)ccc1F)N1CCN(C(=O)C2CC2)CC1 [Olaparib, 4-[3-(4-Cyclopropanecarbonylpiperazine-1-carbonyl)-4-fluorobenzyl]-2H-phthalazin-1-one]
ERG-target gene expression in tumors (qPCR) [1]: loss of ERG-target gene expression
ERG-enhanced DNA DSB damage repair (γH2A.X foci) [2]: blocked; also recorded: reversed by PARP inhibition
invasion of PC3 (ETS rearrangement negative control) (PC3): does now effect invasion
potentiated DNA damage (COMET), time course (PC3-ERG cells; PC3-ERG relative to PC3-LACZ, 0.5, 1, 24 and 48 hr exposure, as early as 30 min (p=0.002)): potentiated DNA damage was observed
COMET tail moment increase, ERG positive cells versus controls (PC3-ERG cells; PC3 cells with and without Olaparib, P=0.03, two-way ANOVA): significantly greater increase in the tail moments
ERG-driven cell invasion [3]: blocks ERG-mediated RWPE cell invasion; also recorded: significant reduction
tumor size (weight) on CAM (VCaP): significantly smaller
average number of Ki67 positive cells [4]: Neither NU7026 nor Olaparib consistently led to a significant change; also recorded: no significant change
microvessel density (CD31) [4]: Neither NU7026 nor Olaparib consistently led to a significant change; also recorded: no significant change
primagraft growth [5]: inhibited the growth
ETV1-mediated invasion [6]: does now effect invasion
VCaP cell invasion (VCaP cells): significant reduction; also recorded: blocks VCaP cell invasion
primagraft growth [7]: had no effect
effect on tumors (MDA-MB-231 (BRCA1/2 WT)): no measurable effect
ERG-mediated intravasation (RWPE-ERG cells): sufficient to block ERG-mediated intravasation
